This test concerns the target T1, Interstitial collagenase (Homo sapiens, UniProt P03956).
T1 sequence (P03956 whole entry): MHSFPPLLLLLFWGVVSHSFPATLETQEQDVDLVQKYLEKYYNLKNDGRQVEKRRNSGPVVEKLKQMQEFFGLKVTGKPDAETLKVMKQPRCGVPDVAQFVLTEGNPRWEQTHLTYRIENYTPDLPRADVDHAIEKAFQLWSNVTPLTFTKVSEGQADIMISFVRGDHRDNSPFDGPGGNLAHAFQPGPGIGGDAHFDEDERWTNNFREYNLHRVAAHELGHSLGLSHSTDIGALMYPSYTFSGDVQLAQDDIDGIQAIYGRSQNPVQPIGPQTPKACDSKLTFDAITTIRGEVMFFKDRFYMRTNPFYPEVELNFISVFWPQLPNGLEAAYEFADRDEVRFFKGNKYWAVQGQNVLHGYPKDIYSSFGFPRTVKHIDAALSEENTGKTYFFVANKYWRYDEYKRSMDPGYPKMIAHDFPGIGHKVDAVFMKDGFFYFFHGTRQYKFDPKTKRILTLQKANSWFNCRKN
In words: Inhibition of Matrix Metallo Proteinase-1 (MMP-1).

The results in this text go back to ChEMBL document CHEMBL1129713, “Inhibitors of MMP-1: an examination of P1 C gem-disubstitution in the succinamide hydroxamate series” (Bioorg Med Chem Lett, 1996).

Broadly, the IC50 is the concentration that inhibits the measured activity by half. A lower IC50 goes with inhibition by little substance. For the compound `CNC(=O)[C@H](Cc1ccc(OC)cc1)NC(=O)C1(CC(=O)NO)CCCCC1`, the IC50 worked out at 150 nM. The same measure for `CNC(=O)[C@H](Cc1ccc(OC)cc1)NC(=O)C(C)(CC(=O)NO)CC(C)C` (stereo partly specified): 460 nM; for `CNC(=O)[C@H](Cc1ccc(OC)cc1)NC(=O)C1(CC(=O)NO)CCCC1`: 2800 nM. The same measure for `CNC(=O)[C@H](Cc1ccc(OC)cc1)NC(=O)[C@@]1(CC(=O)NO)CCc2ccccc21`: over 30000 nM; for `CNC(=O)[C@H](Cc1ccc(OC)cc1)NC(=O)C1(CC(=O)NO)Cc2ccccc2C1`: 570 nM. The same measure for `CNC(=O)[C@H](Cc1ccc(OC)cc1)NC(=O)[C@]1(CC(=O)NO)CCc2ccccc21`: 17500 nM; for `CNC(=O)[C@H](Cc1ccc(OC)cc1)NC(=O)C(C)(CC(=O)NO)c1ccccc1` (stereo partly specified): 3800 nM. With `CNC(=O)[C@H](Cc1ccc(OC)cc1)NC(=O)C(CC(=O)NO)c1ccccc1` (stereo partly specified), the concentration for half-maximal inhibition (IC50) was found to be 40 nM. This IC50 is about 95-fold lower than that of the compound before. `CNC(=O)[C@H](Cc1ccc(OC)cc1)NC(=O)C1(CC(=O)NO)CCCc2ccccc21` (stereo partly specified) gave a half-inhibitory concentration (IC50) of 770 nM. Compared with the last compound, the IC50 is about 19-fold higher. The value for `CNC(=O)[C@H](Cc1ccc(OC)cc1)NC(=O)C1(CC(=O)NO)Cc2ccccc21` (stereo in doubt; form 1) was 2200 nM; that for `CNC(=O)[C@H](Cc1ccc(OC)cc1)NC(=O)C1(CC(=O)NO)Cc2ccccc21` (stereo in doubt; form 2) was 800 nM.
